Tests used:
[1] = test system: dairy cows; conditions: 24 mg/kg of dietary dry matter, 28-day period; increase from 0.8%; cited from earlier work
[2] = test system: lactating Holstein cows; test: Example 2 feeding trial: milk fatty acid composition; format: in vivo; conditions: FIGS. 4 and 5, monensin with safflower oil
Excerpt: Twenty-eight primiparous and 34 multiparous lactating Holstein cows were used in a randomized complete block design with repeated measures. Animals were blocked according to parity and DIM. Cows within each block were then randomly assigned to one of six treatment diets: (1) Control diet (CTL); (2) Control diet including safflower oil supplemented at 6% of DM (SAFF); (3) Control diet including safflower oil supplemented at 6% of DM plus Vitamin E supplemented at 150 IU/kg DM (SAFF/E); (4) Control diet including safflower oil supplemented at 6% of DM plus monensin supplemented at 24 ppm of DM (SAFF/M); (5) Control diet including safflower oil supplemented at 6% of DM plus Vitamin E supplemented at 150 IU/kg DM plus monensin supplemented at 24 ppm of DM (SAFF/M/E); (6) Control diet including flaxseed oil supplemented at 6% of DM plus Vitamin E supplemented at 150 IU/kg DM (FLAX/E). […] Feed intake was recorded daily and adjusted to maintain 5 to 10% orts. […] Milk yield was recorded daily. […] A portion of milk from each cow was preserved with potassium dichromate and analyzed for protein, fat, lactose, and somatic cell count at the Alberta Agriculture, Food and Rural Development Central Milk Testing Laboratory (Edmonton, Alberta, Canada). […] The data were analyzed as a randomized complete block design with repeated measures using MIXED procedure of SAS version 8:3 (SAS Institute, Cary, N.C.).

[3] = test system: mouse DMBA model; conditions: synthetically prepared mixture of the CLA isomers; cited from earlier work
[4] = test system: DMBA-induced mammary tumors in rats; conditions: 0.05 g CLA/100 g of diet; cited from earlier work

Molecule | CLA in milk fat [1] | persistence of effect on CLA and trans 18:1 [2] | papillomas compared to the control mice [3] | number of mammary tumors [4]
CC[C@@]1([C@@H]2O[C@@H]([C@H]3O[C@@](O)(CO)[C@H](C)C[C@@H]3C)C[C@@H]2C)CC[C@H]([C@]2(C)CC[C@]3(C[C@H](O)[C@@H](C)[C@@H]([C@@H](C)[C@@H](OC)[C@H](C)C(=O)O)O3)O2)O1 [monensin] | 1.3 % of milk fat | consistent across the two-month period | – | –
Conjugated linoleic acid [CLA] | – | – | about one-half | reduction

Reference: US20040228948A1, “Increasing the concentration of conjugated linoleic acid isomers in the milk fat and/or tissue fat of ruminants” (priority 2003, published 2004)
